This is an account of results in US7625910B2, “Co-crystal” (AstraZeneca AB, priority 2006, dated 2009).

One data set can be described thus: Dynamic Vapour Sorption. Type of data set: physicochemical. The following applies: 25° C.; for hygroscopicity: 0-95% RH, two cycles, batches from Method 1 and Method 2 (FIGS. 4 and 5). The method, then:
Analytical Instrument: Surface Measurements Systems Dynamic Vapour Sorption Analyser. About 5 mg of material contained in a quartz holder at a specified temperature was subjected to humidified nitrogen at a flow rate of 200 ml/minute of nitrogen at 25° C. at the following relative humidities (RH): 0, 20, 40, 60, 80, 95, 80, 60, 40, 20, 0% RH in duplicate. The weight of the material at a particular relative humidity was monitored until it was stable according to a weight criteria of 0.002% weight change per minute averaged over 10 minutes. If the weight was still changing then it stayed at a particular relative humidity until the weight was stable (up to a maximum time of 12 hours).

In data set [1] the test system is human colorectal (SW620, HCT116, Colo205) and lung (A549, Calu-6) tumour xenografts. Description: tumour growth inhibition in human tumour xenografts. The note with it: panel of human colorectal (SW620, HCT116, Colo205) and lung (A549, Calu-6) tumour xenografts; with statistical significance. Type of data set: in vivo. In general terms: A xenograft is tissue or cells of one species grown in another, often human tumour cells in immunodeficient mice.

Data set [2] can be described thus: pro-drug conversion in human plasma. Type of data set: in vitro ADME.

For `CCN(CCCOc1ccc2c(Nc3cc(CC(=O)Nc4cccc(F)c4)[nH]n3)ncnc2c1)CCOP(=O)(O)O.O=C(O)/C=C\C(=O)O` [AZD1152 maleate co-crystal, 2-{ethyl[3-({4-[(5-{2-[(3-fluorophenyl)amino]-2-oxoethyl}-1H-pyrazol-3-yl)amino]quinazolin-7-yl}oxy)propyl]amino}ethyl dihydrogen phosphate.maleate], the results for the hygroscopicity result in the data set “Dynamic Vapour Sorption” and in the data set “Dynamic Vapour Sorption” (listed as maleate co-crystal of AZD1152) were “non-hygroscopic” and “substantially non-hygroscopic”, respectively.

Take `CCN(CCCOc1ccc2c(Nc3cc(CC(=O)Nc4cccc(F)c4)n[nH]3)ncnc2c1)CCOP(=O)(O)O` [AZD1152, 2-{ethyl[3-({4-[(5-{2-[(3-fluorophenyl)amino]-2-oxoethyl}-1H-pyrazol-3-yl)amino]quinazolin-7-yl}oxy)propyl]amino}ethyl dihydrogen phosphate]: the “inhibition of tumour growth” value in data set [1] was “inhibit tumour growth”. The “conversion of pro-drug to active moiety AZD1152 HQPA” value in data set [2] was “rapidly and completely converted”. Moreover, the “level of water (hydration state) with relative humidity” value in the data set “Dynamic Vapour Sorption” (0-95% RH (FIG. 6), dehydrated to tetrahydrated state and higher) is “quite variable depending on the relative humidity of storage”.
